Reference: paper PMC4673153, “Discovery of benzo[e]pyridoindolones as kinase inhibitors that disrupt mitosis exit while erasing AMPK-Thr172 phosphorylation on the spindle” (Oncotarget, 2015)
Counter-ions that a name gives are not always drawn.

How the values were obtained:
Format in all cases: biochemical
Chk2 = target: T1, Chk2 (Homo sapiens, UniProt O96017); assay: in vitro kinase assay, recombinant enzyme (MRC Dundee)
T1 construct: gene CHEK2

aurora B kinase = target: T2, aurora B kinase (Homo sapiens, UniProt Q96GD4); assay: as above
T2 construct: gene AURKB

Melk = Melk (Homo sapiens, UniProt Q14680); assay: as above
CaMKKβ = target: T3, CaMKKβ (Homo sapiens, UniProt Q96RR4); assay: kinase panel profiling at […], recombinant enzyme (MRC Dundee)
T3 construct: gene CAMKK2

phosphorylase kinase = assay: in vitro kinase assay, recombinant enzyme (MRC Dundee)
Flt1/V-EGFR1 = target: T4, Flt1/V-EGFR1 (Homo sapiens, UniProt P17948); assay: as above
T4 sequence (P17948 781-1338 limits assumed): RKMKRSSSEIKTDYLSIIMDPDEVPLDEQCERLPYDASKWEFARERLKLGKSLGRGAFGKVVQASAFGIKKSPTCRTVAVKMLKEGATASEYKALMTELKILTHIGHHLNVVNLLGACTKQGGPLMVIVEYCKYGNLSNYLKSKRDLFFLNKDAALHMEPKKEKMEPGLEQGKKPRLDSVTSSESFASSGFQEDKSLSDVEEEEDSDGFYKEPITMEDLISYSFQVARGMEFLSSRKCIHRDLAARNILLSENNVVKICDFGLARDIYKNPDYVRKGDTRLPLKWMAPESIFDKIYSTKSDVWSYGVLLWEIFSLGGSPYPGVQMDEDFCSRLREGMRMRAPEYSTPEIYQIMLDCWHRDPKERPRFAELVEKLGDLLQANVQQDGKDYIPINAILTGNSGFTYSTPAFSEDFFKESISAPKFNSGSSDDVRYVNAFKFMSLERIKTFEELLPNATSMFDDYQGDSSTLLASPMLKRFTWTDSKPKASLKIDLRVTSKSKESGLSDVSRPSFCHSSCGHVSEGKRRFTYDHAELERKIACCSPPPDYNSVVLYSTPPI

Tak1 = target: T5, Tak1 (Homo sapiens, UniProt O43318); assay: as above
T5 construct: gene MAP3K7
T5 sequence (O43318 1-606): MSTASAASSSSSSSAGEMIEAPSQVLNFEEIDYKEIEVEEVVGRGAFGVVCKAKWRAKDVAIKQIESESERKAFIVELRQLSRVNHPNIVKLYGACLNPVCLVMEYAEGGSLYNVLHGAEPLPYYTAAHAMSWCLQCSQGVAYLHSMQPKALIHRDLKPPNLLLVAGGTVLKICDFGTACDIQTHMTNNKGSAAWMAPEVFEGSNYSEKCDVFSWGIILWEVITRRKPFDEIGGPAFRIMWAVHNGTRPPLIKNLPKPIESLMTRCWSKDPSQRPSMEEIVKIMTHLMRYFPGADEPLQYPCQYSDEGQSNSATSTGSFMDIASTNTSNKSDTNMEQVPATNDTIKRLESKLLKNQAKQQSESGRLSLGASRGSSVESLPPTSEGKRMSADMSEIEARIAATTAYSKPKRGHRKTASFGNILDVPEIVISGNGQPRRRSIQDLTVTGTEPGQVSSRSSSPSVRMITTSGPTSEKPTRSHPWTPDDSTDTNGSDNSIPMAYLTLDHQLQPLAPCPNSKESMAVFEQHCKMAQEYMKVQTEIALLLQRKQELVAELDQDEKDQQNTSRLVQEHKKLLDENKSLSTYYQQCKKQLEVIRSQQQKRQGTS
T5 sequence (Q15750 1-504 partner): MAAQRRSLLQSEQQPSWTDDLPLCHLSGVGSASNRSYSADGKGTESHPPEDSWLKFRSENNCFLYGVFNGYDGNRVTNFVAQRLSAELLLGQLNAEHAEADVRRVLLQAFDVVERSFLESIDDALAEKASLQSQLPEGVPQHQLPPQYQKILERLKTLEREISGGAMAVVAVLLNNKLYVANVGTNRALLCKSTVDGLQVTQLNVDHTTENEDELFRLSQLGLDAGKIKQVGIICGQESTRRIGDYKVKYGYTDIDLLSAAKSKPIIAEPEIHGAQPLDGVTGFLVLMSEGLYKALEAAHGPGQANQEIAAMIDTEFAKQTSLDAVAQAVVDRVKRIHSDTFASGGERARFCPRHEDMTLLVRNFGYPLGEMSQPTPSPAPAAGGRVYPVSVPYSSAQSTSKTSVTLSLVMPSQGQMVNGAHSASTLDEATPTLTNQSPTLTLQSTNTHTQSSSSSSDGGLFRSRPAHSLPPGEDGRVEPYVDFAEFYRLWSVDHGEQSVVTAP

Sik2 = Sik2 (Homo sapiens, UniProt Q9H0K1); assay: as above
ARK5/Nuak1 = target: T6, ARK5/Nuak1 (Homo sapiens, UniProt O60285); assay: as above
T6 sequence (O60285 1-661): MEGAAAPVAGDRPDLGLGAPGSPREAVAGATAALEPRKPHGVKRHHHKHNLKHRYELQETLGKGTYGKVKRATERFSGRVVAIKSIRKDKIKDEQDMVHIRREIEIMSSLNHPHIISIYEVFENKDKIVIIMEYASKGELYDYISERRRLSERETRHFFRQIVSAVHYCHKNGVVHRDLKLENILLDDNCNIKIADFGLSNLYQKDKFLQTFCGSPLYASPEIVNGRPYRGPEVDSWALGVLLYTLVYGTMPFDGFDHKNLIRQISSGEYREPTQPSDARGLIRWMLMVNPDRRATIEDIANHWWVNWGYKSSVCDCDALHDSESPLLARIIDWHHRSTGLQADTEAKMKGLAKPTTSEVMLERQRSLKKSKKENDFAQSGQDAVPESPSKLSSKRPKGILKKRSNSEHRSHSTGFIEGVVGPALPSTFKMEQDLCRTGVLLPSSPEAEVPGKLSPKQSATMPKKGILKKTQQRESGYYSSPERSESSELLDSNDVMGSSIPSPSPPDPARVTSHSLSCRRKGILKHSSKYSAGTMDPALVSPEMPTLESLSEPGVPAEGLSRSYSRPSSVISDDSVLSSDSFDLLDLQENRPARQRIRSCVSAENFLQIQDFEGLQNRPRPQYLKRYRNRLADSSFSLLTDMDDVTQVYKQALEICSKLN

Chk1 = target: T7, Chk1 (Homo sapiens, UniProt O14757); assay: as above
T7 construct: gene CHEK1
T7 sequence (O14757 1-476): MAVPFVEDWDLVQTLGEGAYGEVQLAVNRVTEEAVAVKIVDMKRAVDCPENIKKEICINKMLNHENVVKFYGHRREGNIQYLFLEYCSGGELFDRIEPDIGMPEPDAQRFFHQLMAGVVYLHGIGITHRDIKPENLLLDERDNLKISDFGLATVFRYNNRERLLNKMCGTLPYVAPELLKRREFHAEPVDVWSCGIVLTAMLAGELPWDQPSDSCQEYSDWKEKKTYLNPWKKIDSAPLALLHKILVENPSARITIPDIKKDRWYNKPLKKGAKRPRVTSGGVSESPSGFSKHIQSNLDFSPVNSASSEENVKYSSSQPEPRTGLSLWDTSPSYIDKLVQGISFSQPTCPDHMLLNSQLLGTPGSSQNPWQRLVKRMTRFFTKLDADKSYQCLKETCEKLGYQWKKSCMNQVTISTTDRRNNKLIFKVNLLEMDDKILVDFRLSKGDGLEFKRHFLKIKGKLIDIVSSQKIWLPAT

Chain of Melk (Q14680 whole entry): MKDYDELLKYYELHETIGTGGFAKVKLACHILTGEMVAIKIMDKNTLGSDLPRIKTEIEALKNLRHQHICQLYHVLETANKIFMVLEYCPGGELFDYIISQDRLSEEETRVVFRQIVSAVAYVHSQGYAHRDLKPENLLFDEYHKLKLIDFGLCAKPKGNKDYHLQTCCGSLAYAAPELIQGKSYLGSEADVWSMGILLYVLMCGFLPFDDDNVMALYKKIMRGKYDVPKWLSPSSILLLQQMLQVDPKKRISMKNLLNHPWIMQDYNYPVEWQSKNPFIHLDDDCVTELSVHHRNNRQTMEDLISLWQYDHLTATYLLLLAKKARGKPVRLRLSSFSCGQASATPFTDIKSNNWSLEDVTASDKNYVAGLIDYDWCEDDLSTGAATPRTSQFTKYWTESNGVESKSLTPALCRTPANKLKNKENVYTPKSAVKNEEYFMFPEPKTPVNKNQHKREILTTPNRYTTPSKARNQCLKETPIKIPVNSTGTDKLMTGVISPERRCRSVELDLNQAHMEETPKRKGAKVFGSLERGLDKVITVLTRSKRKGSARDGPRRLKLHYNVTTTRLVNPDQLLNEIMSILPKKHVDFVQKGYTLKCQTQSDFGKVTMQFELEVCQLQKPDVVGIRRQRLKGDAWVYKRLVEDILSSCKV
T1 sequence (O96017 whole entry): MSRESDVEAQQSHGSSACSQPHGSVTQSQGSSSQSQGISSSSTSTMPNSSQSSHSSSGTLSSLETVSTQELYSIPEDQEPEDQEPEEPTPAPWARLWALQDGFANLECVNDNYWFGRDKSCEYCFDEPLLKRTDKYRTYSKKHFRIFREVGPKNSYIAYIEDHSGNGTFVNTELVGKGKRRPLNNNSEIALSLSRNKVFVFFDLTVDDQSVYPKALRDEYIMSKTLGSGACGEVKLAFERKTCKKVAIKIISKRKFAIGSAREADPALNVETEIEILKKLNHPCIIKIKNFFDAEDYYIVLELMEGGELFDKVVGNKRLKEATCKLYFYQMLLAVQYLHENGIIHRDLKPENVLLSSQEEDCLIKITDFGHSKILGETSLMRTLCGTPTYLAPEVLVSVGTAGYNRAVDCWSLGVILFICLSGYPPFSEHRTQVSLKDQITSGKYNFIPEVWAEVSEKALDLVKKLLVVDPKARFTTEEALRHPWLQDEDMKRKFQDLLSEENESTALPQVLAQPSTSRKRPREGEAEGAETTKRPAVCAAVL
Chain of Sik2 (Q9H0K1 whole entry): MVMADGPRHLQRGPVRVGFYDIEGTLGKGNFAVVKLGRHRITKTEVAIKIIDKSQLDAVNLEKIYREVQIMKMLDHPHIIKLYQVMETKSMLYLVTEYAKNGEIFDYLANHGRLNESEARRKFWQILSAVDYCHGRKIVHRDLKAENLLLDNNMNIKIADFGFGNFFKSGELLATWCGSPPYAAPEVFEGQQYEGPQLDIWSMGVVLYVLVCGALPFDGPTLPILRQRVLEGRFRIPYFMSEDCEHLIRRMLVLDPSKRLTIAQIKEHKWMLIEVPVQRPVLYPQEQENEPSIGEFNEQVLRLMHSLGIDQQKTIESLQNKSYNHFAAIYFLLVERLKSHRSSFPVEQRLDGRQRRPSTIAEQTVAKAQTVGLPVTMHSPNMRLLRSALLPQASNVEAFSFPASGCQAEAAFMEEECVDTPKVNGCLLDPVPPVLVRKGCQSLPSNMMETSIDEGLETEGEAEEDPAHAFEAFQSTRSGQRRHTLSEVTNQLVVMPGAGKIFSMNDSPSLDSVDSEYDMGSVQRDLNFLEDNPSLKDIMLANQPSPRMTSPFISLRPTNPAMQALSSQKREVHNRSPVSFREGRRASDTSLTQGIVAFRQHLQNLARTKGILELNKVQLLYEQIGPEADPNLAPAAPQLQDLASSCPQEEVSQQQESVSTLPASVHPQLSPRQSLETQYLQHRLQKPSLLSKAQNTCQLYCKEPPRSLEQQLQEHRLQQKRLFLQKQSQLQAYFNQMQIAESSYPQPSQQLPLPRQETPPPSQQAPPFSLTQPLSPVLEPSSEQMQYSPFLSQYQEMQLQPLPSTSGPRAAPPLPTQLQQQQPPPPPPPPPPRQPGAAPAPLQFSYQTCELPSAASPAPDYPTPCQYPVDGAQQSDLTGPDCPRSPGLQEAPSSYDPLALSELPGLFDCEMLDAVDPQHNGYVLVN
T2 sequence (Q96GD4 whole entry): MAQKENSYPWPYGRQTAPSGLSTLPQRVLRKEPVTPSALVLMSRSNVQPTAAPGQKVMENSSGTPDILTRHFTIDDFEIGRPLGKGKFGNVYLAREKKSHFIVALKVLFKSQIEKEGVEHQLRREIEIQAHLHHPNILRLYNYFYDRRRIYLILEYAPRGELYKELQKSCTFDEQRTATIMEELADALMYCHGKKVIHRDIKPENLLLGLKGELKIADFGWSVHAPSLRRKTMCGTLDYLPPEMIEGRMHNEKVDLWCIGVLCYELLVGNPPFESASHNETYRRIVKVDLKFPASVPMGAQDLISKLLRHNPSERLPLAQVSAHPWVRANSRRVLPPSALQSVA
T3 sequence (Q96RR4 2-588): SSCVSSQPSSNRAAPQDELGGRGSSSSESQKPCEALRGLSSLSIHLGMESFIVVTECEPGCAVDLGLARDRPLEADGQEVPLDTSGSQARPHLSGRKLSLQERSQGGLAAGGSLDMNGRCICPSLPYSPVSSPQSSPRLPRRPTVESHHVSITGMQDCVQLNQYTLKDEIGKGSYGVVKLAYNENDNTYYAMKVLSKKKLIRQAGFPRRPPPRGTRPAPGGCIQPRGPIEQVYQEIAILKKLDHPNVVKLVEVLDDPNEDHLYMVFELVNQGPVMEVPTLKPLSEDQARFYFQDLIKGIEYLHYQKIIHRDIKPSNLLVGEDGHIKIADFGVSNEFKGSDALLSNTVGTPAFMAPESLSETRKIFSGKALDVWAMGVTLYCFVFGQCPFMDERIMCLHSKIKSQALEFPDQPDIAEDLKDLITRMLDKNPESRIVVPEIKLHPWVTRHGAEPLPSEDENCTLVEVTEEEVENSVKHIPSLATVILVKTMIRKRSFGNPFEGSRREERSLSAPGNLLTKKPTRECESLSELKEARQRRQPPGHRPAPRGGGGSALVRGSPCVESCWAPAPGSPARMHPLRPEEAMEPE

IC50 (Chk2): 13.6 nM
IC50 (aurora B kinase): 118 nM
IC50 (Melk): 13.3 nM
IC50 (phosphorylase kinase): 18.5 nM
IC50 (Flt1/V-EGFR1): 37 nM
IC50 (Tak1): 6 nM
IC50 (Sik2): 12.4 nM
IC50 (ARK5/Nuak1): 4.8 nM
IC50 (Chk1): 13.6 nM
Structure (SMILES): Cc1c[nH]c(=O)c2c1[nH]c1ccc3cc(OCCN4CCCCC4)ccc3c12 [C5M, 3-(2-(Piperidin-1-yl)ethoxy)-8-methyl-7H, 10H-benzo[e]pyrido(4,3-b)indol-11-one maleate]
kinase panel profiling at 250 nM, recombinant enzyme (MRC Dundee) (CaMKKβ): Among the fifteen best targets, we noted the presence of several AMPK-related kinases
